In patent publication US6846670B2, “Genetically engineered herpes virus for the treatment of cardiovascular disease” (priority 2000, dated 2005):

What was measured:
[1] = test system: human umbilical vein endothelial cells (HUVECs); experiment: MTT assay of HUVEC viability following viral exposure; assay type: cell-based
Method: To determine the appropriate dose for vascular gene transfer, human umbilical vein endothelial cells (HUVECs) were contacted with graded concentrations of HSV-1 for 120 min and viability was assessed using a standard 72 hr MTT assay, as described below.
Human umbilical vein endothelial cells (HUVECs; BioWhittaker/Clonetics) were suspended in complete medium EBM-2 (BioWhittaker #CC3 156) and singlequots of EGM-2 (#CC4176) and grown to 100% confluence in P75 flasks in a 37° C. incubator with humidified 5% CO2 For the passage of cells, all reagent pack contents (HBSS, Trypsin/EDTA, TNS; BioWhittaker CC-5034) were thawed in a 37° C. water bath and exhausted media was removed and discarded. HUVECs were washed with enough HBSS to cover them, trypsin/EDTA was added, and flasks were gently agitated under an inverted microscope. […]
A modified colorimetric assay based on the selective ability of living cells to reduce the yellow salt MTT (3-[4,5-dimethylthiozol-2-yl]-2,5 diphenyl tetrazolium bromide; Sigma Chemical Co.) to formazan was used to quantitate HUVEC viability following viral exposure. […] The formazan crystals were then dissolved in 0.1 ml DMSO (Sigma) and the absorbance measured at 515 nm using a microplate spectrophotometer (SpectraMax 340 004) interfaced with a personal computer (Apple Macintosh). This process was repeated after 72 hours and relative cell survival was calculated. […]

[2] = test system: umbilical artery smooth muscle cells (UASMCs); experiment: MTT assay of UASMC viability following viral exposure and Acyclovir rescue; assay type: cell-based, human; conditions: UASMCs infected with R849 MOI=25, even with 10 μg/ml Acyclovir
Text: A modified colorimetric assay based on the selective ability of living cells to reduce the yellow salt MTT (3-[4,5-dimethylthiozol-2-yl]-2,5 diphenyl tetrazolium bromide; Sigma Chemical Co.) to formazan was used to quantitate HUVEC and UASMC viability following viral exposure and rescue with Acyclovir (Abbott Laboratories).

[3] = test system: established HSV-1 infection; experiment: Eradication of established R849 infection with Acyclovir in rabbit vein patch; assay type: in vivo
Text: (§1) Its mechanism of action is believed to include penetration intracellularly, conversion initially to the monophosphate by viral thymidine kinases, then to the diphosphate by cellular guanylate kinase and, finally, to the triphosphate by various other cellular enzymes. Fully active Acyclovir triphosphate competes with the natural substrate, deoxyguanosine triphosphate, for a position in the DNA chain of the herpes virus. Once incorporated, it terminates DNA synthesis via (1) competitive inhibition of viral DNA polymerase, (2) incorporation into, and termination of, the growing viral DNA chain, and (3) inactivation of the viral DNA polymerase. Uninfected cells show only minimal uptake and phosphorylation of Acyclovir. The HSV strains used in this example retain tk activity and are thus highly susceptible to neutralization by Acyclovir. To test whether an established HSV-1 infection could be eradicated after completion of the desired therapeutic effect (of the recombinant HSV) in vivo, a rabbit model was used. […] Baseline serum Acyclovir, electrolyte, blood urea nitrogen, and creatinine levels were measured before initiation of Acyclovir treatment, on days 2, 5, and 10 after initiation of treatment, and at sacrifice. […]

[4] = Serum Acyclovir level and serum chemistry during Acyclovir therapy; assay type: in vivo, rabbit
Text: as §1

Nc1nc2c(ncn2COCCO)c(=O)[nH]1 [Acyclovir, 12-amino-1,9-dihydro-9-[(2-hydroxy-ethoxy)methyl]-6H-purin-6-one]
relative 72 hr cell survival with Acyclovir ([1]; HUVECs infected with R849 MOI=25, Acyclovir 0.25 μg/ml): 45±5% | relative 72 hr cell survival with Acyclovir ([1]; HUVECs infected with R849 MOI=25, Acyclovir 0.5 μg/ml): 85±9% | rescue of infected cells with Acyclovir [2]: could not be rescued | cells with β-galactosidase activity after Acyclovir treatment ([3]; R849 4×10^8 pfu/ml vein patch, Acyclovir 75 mg/kg iv five days from week 1 plus oral, harvest at four weeks): < 1% | patency of treated vein patches after eradication of R849 infection ([3]; four weeks): remained widely patent | serum levels of Acyclovir ([4]; during Acyclovir therapy, rabbits): 9000 ± 4000 ng/mL | systemic toxicity by serum electrolytes, blood urea nitrogen and creatinine ([4]; throughout the study, rabbits with R849-infected patches on Acyclovir): no significant systemic toxicity
